Source: PubChem BioAssay AID248 (DTP/NCI, 2004)
“And” between values parts separate entries of the source, which are not always exact repeats. Equal values may be shown once. Inconclusive results and toxic doses are left out.

System: L1210 leukemia ip in BDF1 mice, survival T/C
Test: NCI In Vivo Anticancer Drug Screen. Data for tumor model L1210 Leukemia (intraperitoneal) in B6D2F1 (BDF1) mice
Conditions: endpoint: mean survival time, higher = longer survival
Summary of the method: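 In this screen, tumor-bearing mice given compound are compared to those given vehicle, and their survival values are reported as a treated-to-control quotient.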

[1] = dose: 100.0 mg/kg/injection, schedule: Q01DX001 (ip), vehicle: saline
[2] = dose: 100.0 mg/kg/injection, schedule: Q04DX003 (ip), vehicle: Klucel (hydroxypropylcellulose) (HPC)
[3] = dose: 200.0 mg/kg/injection, schedule: Q01DX001 (ip), vehicle: saline
[4] = dose: 200.0 mg/kg/injection, schedule: Q04DX003 (ip), vehicle: Klucel (hydroxypropylcellulose) (HPC)
[5] = dose: 400.0 mg/kg/injection, schedule: Q04DX003 (ip), vehicle: Klucel (hydroxypropylcellulose) (HPC)
[6] = dose: 100.0 mg/kg/injection, schedule: Q01DX009 (ip), vehicle: Klucel (hydroxypropylcellulose) (HPC)
[7] = dose: 100.0 mg/kg/injection, schedule: Q04DX002 (ip), vehicle: Klucel (hydroxypropylcellulose) (HPC)
[8] = dose: 200.0 mg/kg/injection, schedule: Q04DX002 (ip), vehicle: Klucel (hydroxypropylcellulose) (HPC)
[9] = dose: 400.0 mg/kg/injection, schedule: Q04DX002 (ip), vehicle: Klucel (hydroxypropylcellulose) (HPC)

Which results are given for `O=C1Sc2ccccc2C1=O`?
T/C [1]: 94 % of control; T/C [2]: 91 % of control; T/C [3]: 103 % of control; T/C [4]: 94 % of control; T/C [5]: 102 % of control

Which results are given for `N#CCCSCCSCCC#N`?
T/C [6]: 95 % of control; T/C (dose: 200.0 mg/kg/injection, schedule: Q01DX009 (ip), vehicle: Klucel (hydroxypropylcellulose) (HPC)): 97 % of control; T/C (dose: 400.0 mg/kg/injection, schedule: Q01DX009 (ip), vehicle: Klucel (hydroxypropylcellulose) (HPC)): 101 % of control

How did the T/C [7] turn out when `OCC(O)C(O)C(O)C(O)C(SCc1ccccc1)SCc1ccccc1` (stereo not given) was run?
The T/C was 98 % of control.

And the T/C [8]?
Its T/C is 92 % of control.

What about the T/C [9] of the same compound?
Its T/C is 92 % of control.

Which results are given for `CC1OC1C1OC1C` (stereo not given)?
T/C (dose: 100.0 mg/kg/injection, schedule: Q04DX002 (ip), vehicle: saline): 109 % of control; T/C (dose: 100.0 mg/kg/injection, schedule: Q04DX003 (ip), vehicle: saline): 104 % of control and 101 % of control and 97 % of control; T/C (dose: 200.0 mg/kg/injection, schedule: Q04DX002 (ip), vehicle: saline): 109 % of control; T/C (dose: 200.0 mg/kg/injection, schedule: Q04DX003 (ip), vehicle: saline): 108 % of control and 111 % of control and 95 % of control; T/C (dose: 400.0 mg/kg/injection, schedule: Q04DX002 (ip), vehicle: saline): 109 % of control; T/C (dose: 400.0 mg/kg/injection, schedule: Q04DX003 (ip), vehicle: saline): 111 % of control and 97 % of control and 98 % of control

What does the source list for `C=C(C)COC(=O)Nc1cccc(OC(=O)NC)c1`?
T/C (dose: 100.0 mg/kg/injection, schedule: Q01DX001 (ip), vehicle: saline with Tween-80): 97 % of control; T/C (dose: 200.0 mg/kg/injection, schedule: Q01DX001 (ip), vehicle: saline with Tween-80): 97 % of control; T/C (dose: 400.0 mg/kg/injection, schedule: Q01DX001 (ip), vehicle: saline with Tween-80): 94 % of control

`CN(C)CC(O)c1ccc2oc3ccccc3c2c1` (stereo not given) was tested. Which T/C [1] did it give?
The T/C was 90 % of control.

What about the T/C [3] of the same compound?
The T/C was 97 % of control.

With `CCOC(=O)C(=CNc1cccc(C)n1)C(=O)OCC` as the compound, how does the T/C (dose: 100.0 mg/kg/injection, schedule: Q01DX009 (ip), vehicle: saline with Tween-80) read?
Its T/C is 100 % of control.

And the T/C (dose: 200.0 mg/kg/injection, schedule: Q01DX009 (ip), vehicle: saline with Tween-80)?
Its T/C is 102 % of control.

What about the T/C (dose: 400.0 mg/kg/injection, schedule: Q01DX009 (ip), vehicle: saline with Tween-80) of the same compound?
Its T/C is 100 % of control.

How did the T/C (dose: 0.5 mg/kg/injection, schedule: Q01DX009 (ip), vehicle: saline) turn out when `CC(CCC(=O)O)(NC(=O)c1ccc(NCc2ccc3nc(N)nc(N)c3c2)cc1)C(=O)O` (stereo not given) was run?
Its T/C is 150 % of control.

And the T/C (dose: 1.0 mg/kg/injection, schedule: Q01DX009 (ip), vehicle: saline)?
The T/C was 163 % of control and 176 % of control.

What about the T/C (dose: 4.0 mg/kg/injection, schedule: Q01DX009 (ip), vehicle: saline) of the same compound?
The T/C was 163 % of control.

And the T/C (dose: 8.0 mg/kg/injection, schedule: Q01DX009 (ip), vehicle: saline)?
Its T/C is 112 % of control.

What about the T/C (dose: 8.0 mg/kg/injection, schedule: Q04DX003 (ip), vehicle: saline) of the same compound?
Its T/C is 115 % of control.

What about the T/C (dose: 16.0 mg/kg/injection, schedule: Q01DX009 (ip), vehicle: saline) of the same compound?
The T/C was 102 % of control.

What about the T/C (dose: 16.0 mg/kg/injection, schedule: Q04DX003 (ip), vehicle: saline) of the same compound?
Its T/C is 123 % of control.

And the T/C (dose: 64.0 mg/kg/injection, schedule: Q04DX003 (ip), vehicle: saline)?
The T/C was 115 % of control.

And the T/C (dose: 128.0 mg/kg/injection, schedule: Q04DX003 (ip), vehicle: saline)?
The T/C was 99 % of control.

With `Cc1ccc(N=NNc2ccc(C)cc2)cc1` as the compound, how does the T/C (dose: 25.0 mg/kg/injection, schedule: Q01DX009 (ip), vehicle: Klucel (hydroxypropylcellulose) (HPC)) read?
The T/C was 96 % of control.

And the T/C (dose: 50.0 mg/kg/injection, schedule: Q01DX009 (ip), vehicle: Klucel (hydroxypropylcellulose) (HPC))?
The T/C was 97 % of control.

What about the T/C (dose: 75.0 mg/kg/injection, schedule: Q04DX003 (ip), vehicle: Klucel (hydroxypropylcellulose) (HPC)) of the same compound?
Its T/C is 100 % of control.

And the T/C [6]?
The T/C was 97 % of control.

And the T/C (dose: 150.0 mg/kg/injection, schedule: Q04DX003 (ip), vehicle: Klucel (hydroxypropylcellulose) (HPC))?
The T/C was 100 % of control.

And the T/C (dose: 300.0 mg/kg/injection, schedule: Q04DX003 (ip), vehicle: Klucel (hydroxypropylcellulose) (HPC))?
Its T/C is 100 % of control.

Which T/C (dose: 100.0 mg/kg/injection, schedule: Q01DX009 (sc), vehicle: olive oil, sesame oil, peanut oil) does the source give for `C1CCC(=NN=C2CCCCC2)CC1` here?
Its T/C is 103 % of control.

What about the T/C (dose: 100.0 mg/kg/injection, schedule: Q04DX003 (sc), vehicle: olive oil, sesame oil, peanut oil) of the same compound?
The T/C was 100 % of control.

What about the T/C (dose: 200.0 mg/kg/injection, schedule: Q01DX009 (sc), vehicle: olive oil, sesame oil, peanut oil) of the same compound?
The T/C was 100 % of control.

And the T/C (dose: 200.0 mg/kg/injection, schedule: Q04DX003 (sc), vehicle: olive oil, sesame oil, peanut oil)?
The T/C was 106 % of control.

And the T/C (dose: 400.0 mg/kg/injection, schedule: Q01DX009 (sc), vehicle: olive oil, sesame oil, peanut oil)?
Its T/C is 101 % of control.

What about the T/C (dose: 400.0 mg/kg/injection, schedule: Q04DX003 (sc), vehicle: olive oil, sesame oil, peanut oil) of the same compound?
Its T/C is 105 % of control.

How did the T/C (dose: 100.0 mg/kg/injection, schedule: Q01DX009 (ip), vehicle: saline) turn out when `CC(CC=O)CCCC(C)(C)O` (stereo not given) was run?
Its T/C is 102 % of control.

And the T/C (dose: 200.0 mg/kg/injection, schedule: Q01DX009 (ip), vehicle: saline)?
Its T/C is 102 % of control.

What about the T/C (dose: 400.0 mg/kg/injection, schedule: Q01DX009 (ip), vehicle: saline) of the same compound?
Its T/C is 93 % of control.

Which results are given for `CC(=O)N1CSCC1C(=O)O` (stereo not given)?
T/C [2]: 89 % of control; T/C [4]: 94 % of control; T/C [5]: 91 % of control

For `C=C1c2ccccc2N(C)C1(COc1ccc(Br)cc1)OC(=O)c1cccc(Cl)c1` (stereo not given), which T/C [7] is on record?
Its T/C is 95 % of control.

And the T/C [8]?
The T/C was 95 % of control.

And the T/C [9]?
The T/C was 98 % of control.
